Data on 5 compounds can be found in patent US7919489B2, “Heterocyclyamide-substituted imidazoles” (Aicuris GmbH & Co. KG, priority 2005, dated 2011).

The subject of one series is HCMV. The series is described as follows: Anti-HCMV cytopathogenicity test (inhibition of CPE). It counts as cell-based, human cytomegalovirus. The note with it: for EC50: Human betaherpesvirus 5, 144 h, concentration inhibiting the CPE by 50% vs untreated virus control, HCMV-infected NHDF cells, 6 days. How it is done:
Anti-HCMV (Anti-Human Cytomegalovirus) Cytopathogenicity Tests The test compounds are employed as 50 millimolar (mM) solutions in dimethyl sulfoxide (DMSO). Ganciclovir, foscarnet and cidofovir are used as reference compounds. After the addition of in each case 2 μl of the 50, 5, 0.5 and 0.05 mM DMSO stock solutions to 98 μl portions of cell culture medium in row […] for duplicate determinations, 1:2 dilutions are carried out with 50 μl portions of medium up to row 11 of the 96-well plate. The wells in rows 1 and 12 each contain 50 μl of medium. Then 150 μl of a suspension of 1×10^4 cells (human prepuce fibroblasts [NHDF]) are pipetted into each of the wells (row 1=cell control) and, in rows 2-12, a mixture of HCMV-infected and uninfected NHDF cells (M.O.I.=0.001-0.002), i.e. 1-2 infected cells per 1000 uninfected cells. Row 12 (without substance) serves as virus control. The final test concentrations are 250-0.0005 μM. The plates are incubated at 37° C./5% CO2 for 6 days, i.e. until all the cells in the virus controls are infected (100% cytopathogenic effect [CPE]). The wells are then fixed and stained by adding a mixture of formalin and Giemsa's dye (30 minutes), washed with double-distilled water and dried in a drying oven at 50° C. The plates are then assessed visually using an overhead microscope (Plaque Multiplier from Technomara). The following data can be acquired from the test plates: EC50 (HCMV)=substance concentration in μM which inhibits the CPE (cytopathic effect) by 50% compared with the untreated virus control; SI (selectivity index)=CC50 (NHDF)/EC50 (HCMV).
On the technique in general: Cytopathic effects are the visible damage that an infection or toxin causes in cultured cells.

Series [1] in a line: Anti-HCMV cytopathogenicity test: cytostatic effects on NHDF cells. It counts as cell-based. The settings on record: human, NHDF cells (human prepuce fibroblasts), maximum substance concentration with no visible cytostatic effects vs untreated cell control. How it is done:
Anti-HCMV (Anti-Human Cytomegalovirus) Cytopathogenicity Tests The test compounds are employed as 50 millimolar (mM) solutions in dimethyl sulfoxide (DMSO). Ganciclovir, foscarnet and cidofovir are used as reference compounds. After the addition of in each case 2 μl of the 50, 5, 0.5 and 0.05 mM DMSO stock solutions to 98 μl portions of cell culture medium in row […] for duplicate determinations, 1:2 dilutions are carried out with 50 μl portions of medium up to row 11 of the 96-well plate. The wells in rows 1 and 12 each contain 50 μl of medium. Then 150 μl of a suspension of 1×10^4 cells (human prepuce fibroblasts [NHDF]) are pipetted into each of the wells (row 1=cell control) and, in rows 2-12, a mixture of HCMV-infected and uninfected NHDF cells (M.O.I.=0.001-0.002), i.e. 1-2 infected cells per 1000 uninfected cells. Row 12 (without substance) serves as virus control. The final test concentrations are 250-0.0005 μM. The plates are incubated at 37° C./5% CO2 for 6 days, i.e. until all the cells in the virus controls are infected (100% cytopathogenic effect [CPE]). The wells are then fixed and stained by adding a mixture of formalin and Giemsa's dye (30 minutes), washed with double-distilled water and dried in a drying oven at 50° C. The plates are then assessed visually using an overhead microscope (Plaque Multiplier from Technomara). The following data can be acquired from the test plates: CC50 (NHDF)=maximum substance concentration in μM at which no visible cytostatic effects on the cells are evident by comparison with the untreated cell control;

For `COc1ccc(N2CCN(C(=O)c3nc(NC(=O)Nc4ccc(OC(F)(F)F)cc4)cn3C)CC2)nc1` [Example 29], in the series on HCMV, the “SI HCMV (selectivity index = CC50 (NHDF)/EC50 (HCMV))” value turned out to be 35790 and it took 0.95 nM to reach a half-maximal effect (EC50). It took 34 µM to reach half-maximal cytotoxicity in series [1] (CC50 at 6 days).

For the compound `Cn1cc(NC(=O)Nc2ccc(OC(F)(F)F)cc2)nc1C(=O)N1CCN(c2ccccn2)CC1` [Example 1, N-{1-Methyl-2-[(4-pyridin-2-ylpiperazin-1-yl)carbonyl]-1H-imidazol-4-yl}-N′-[4-(trifluoromethoxy)phenyl]urea], in the series with HCMV, the “SI HCMV (selectivity index = CC50 (NHDF)/EC50 (HCMV))” value was found to be 14500 and the EC50 (commonly the concentration needed to bring the measured effect to its halfway point) worked out at 3 nM. For the same compound, in series [1], the 50% cytotoxic concentration (CC50) – broadly, the concentration that lowers cell viability or growth by half – at 6 days turned out to be 43.5 µM.

With `Cc1ccc(N2CCN(C(=O)c3nc(NC(=O)Nc4ccc(OC(F)(F)F)cc4)cn3C)CC2)nc1` [Example 2, N-(1-Methyl-2-{[4-(5-methylpyridin-2-yl)piperazin-1-yl]carbonyl}-1H-imidazol-4-yl)-N′-[4-(trifluoromethoxy)phenyl]urea], in the series on HCMV, the “SI HCMV (selectivity index = CC50 (NHDF)/EC50 (HCMV))” value was 14530 and the EC50 stood at 0.75 nM. The same compound yielded a cytotoxic concentration (CC50) at 6 days in series [1] of 10.9 µM.

Turning to `Cc1ccc(N2CCN(C(=O)c3nc(NC(=O)Nc4ccc(OC(F)(F)F)cc4)cn3CC3CC3)CC2)nc1` [Example 32], in the series on HCMV, the “SI HCMV (selectivity index = CC50 (NHDF)/EC50 (HCMV))” value came to 6240 and the EC50 is 0.85 nM. In addition, the CC50 at 6 days in series [1] came to 5.3 µM.

On to `Cn1cc(NC(=O)Nc2ccc(OC(F)(F)F)cc2)nc1C(=O)N1CCN(c2ccc(C#N)cn2)CC1` [Example 25], for which, in the series on HCMV, the “SI HCMV (selectivity index = CC50 (NHDF)/EC50 (HCMV))” value was found to be 2600 and it took 4.8 nM to reach a half-maximal effect (EC50). Half-maximal cytotoxicity in series [1] (CC50 at 6 days) was put at 12.5 µM.
